Results taken from patent US8097641B2, “Heterocyclyl substituted tetrahydronaphthalene derivatives as 5-HT7 receptor ligands” (Laboratorios del Dr. Esteve, S.A., priority 2007, dated 2012).
Where a name gives a salt, the structure may show the parent alone.

Biological target: T1, Cloned Human Serotonin Receptor, Subtype 7 (h5HT7) (Homo sapiens, UniProt P34969)
T1 construct: purchased PerkinElmer 6120512; host or cells: CHO cells (membranes coated on Basic FlashPlate SMP200)
Assay: Radioligand binding assay, cloned human serotonin receptor subtype 7 (h5HT7) expressed in CHO cells, [125I]LSD
Conditions: for IC50: [125I]LSD 0.82 nM, h5HT7 membranes from CHO cells, read-out: 5-HT7 IC50; for inhibition at 1 µM: compound at 10^−6 M, read-out: 5-HT7 %-Inhib. (10^−6 M)
Method: Radioligand binding assays were performed using the Cloned Human Serotonin Receptor, Subtype 7 (h5HT7), expressed in CHO cells, coated on Flashplate (Basic FlashPlate Cat.: SMP200) from PerkinElmer (Cat.: 6120512). The protocol assay was essentially the recommended protocol in the Technical Data Sheet by PerkinEmer Life and Analytical Sciences. The Mass membrane protein/well was typically 12 μg and the Receptor/well was about 9-10 fmoles. The Flashplate were let equilibrate at room temperature for one hour before the addition of the components of the assay mixture. The binding buffer was: 50 mM Tris-HCl, pH 7.4, containing 10 mM MgCl2, 0.5 mM EDTA and 0.5% BSA. The radioligand was [^125I]LSD at a final concentration of 0.82 nM. Nonspecific binding was determined with 50 μM of Clozapine. The assay volume was 25 μl. TopSeal-A were applied onto Flashplate microplates and they were incubated at room temperature for 240 minutes in darkness. The radioactivity were quantified by liquid scintillation spectrophotometry (Wallac 1450 Microbeta Trilux) with a count delay of 4 minutes prior to counting and a counting time of 30 seconds per well. Competition binding data were analyzed by using the LIGAND program (Munson and Rodbard, LIGAND: A versatile, computerized approach for characterization of ligand-binding systems. Anal. Biochem. 107: 220-239, 1980) and assays were performed in triplicate determinations for each point.

T1 sequence (P34969 whole entry): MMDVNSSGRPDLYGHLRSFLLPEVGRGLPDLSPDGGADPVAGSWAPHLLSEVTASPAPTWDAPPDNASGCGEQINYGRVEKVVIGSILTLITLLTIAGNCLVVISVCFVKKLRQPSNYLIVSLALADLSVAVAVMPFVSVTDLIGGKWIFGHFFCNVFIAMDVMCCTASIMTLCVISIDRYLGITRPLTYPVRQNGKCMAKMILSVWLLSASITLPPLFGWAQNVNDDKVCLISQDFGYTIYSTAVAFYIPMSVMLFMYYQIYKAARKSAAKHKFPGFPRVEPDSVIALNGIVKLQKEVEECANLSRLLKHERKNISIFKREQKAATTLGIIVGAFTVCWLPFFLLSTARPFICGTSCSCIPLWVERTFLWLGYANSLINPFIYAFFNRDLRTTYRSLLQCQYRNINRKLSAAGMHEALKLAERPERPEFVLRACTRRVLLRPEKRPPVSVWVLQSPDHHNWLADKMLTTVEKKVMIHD

Row | Compound | IC50 [nM] | inhibition at 1 µM [%] | inhibition at 0.1 µM (compound at 10^−7 M, read-out: 5-HT7 %-Inhib. (10^−7 M)) [%]
1 | Cc1nn(C)c(C)c1-c1cccc2c1CC[C@H](N(C)Cc1ccccc1)C2 [Example F, (2S)-Benzyl-methyl-[5-(1,3,5-trimethyl-1H-pyrazol-4-yl)-1,2,3,4-tetrahydro-naphthalen-2-yl]-amine] | 187 | – | –
2 | Cc1nn(C)c(C)c1-c1cccc2c1CC[C@H](NC(C)C)C2 [Example P, (2S)-Isopropyl-[5-(1,3,5-trimethyl-1H-pyrazol-4-yl)-1,2,3,4-tetrahydro-naphthalen-2-yl]-amine] | 587 ± 10 | 61.7 | –
3 | Cc1nn(C)c(C)c1-c1cccc2c1CC[C@H](N)C2 [Example O, (2S)-5-(1,3,5Trimethyl-1H-pyrazol-4-yl)-1,2,3,4-tetrahydro-naphthalen-2-ylamine dihydrochloride] | 25 ± 3.8 | 79 | 47.2
